Measured values as given in US12227512B2, “Benzimidazoles and methods of using same” (priority 2019, dated 2025).
Like-named read-outs stand apart in the source and are kept apart here.

How the values were obtained:
[1] = tested on: Gli-1 and c-Myc; assay: Western blot of Gli-1 and c-Myc in SUFU-KO-Light cells; format: cell-based; settings: 48 hours, immunoblotting
[2] = tested on: cap-dependent and Myc 5'-UTR cap-independent translation; assay: Dual luciferase Myc 5' UTR translation reporter in Huh 7.5 cells; format: cell-based; settings: Renilla (5' cap) / firefly (Myc 5' UTR) luciferase
Description: The dual luciferase plasmid construct described by Willis and co-workers was transfected into Huh 7.5 cells. The Renilla luciferase cistron is translated from a 5′ cap, then the Myc 5′ UTR is placed in front of firefly luciferase to evaluate cap-independent translation from the same mRNA. […] This assay is a proxy for c-Myc translation activity. See also Stoneley et al. (2000) Nucleic Acids Res. 28: 687-94.

[3] = tested on: Raji (Burkitt Lymphoma cell line); assay: Raji cell viability / proliferation; settings: Homo sapiens, read-out: IC50, Raji cell proliferation
[4] = tested on: Gli-luciferace activity in the SUFU-KO-light cells; assay: SUFU-KO-Light assay, inhibition of Gli-luciferase activity; format: cell-based
Description: IC50 SUFO-KO-Light values are for inhibition of Gli-luciferace activity in the SUFU-KO-light cells developed by the James Chen laboratory at Stanford University.

[5] = tested on: Dengue virus 2 New Guinea C; assay: In vitro antiviral screening, Neutral Red (Cytopathic effect); settings: Huh7; for SI50: Neutral Red (Cytopathic effect/Toxicity); for EC50: Dengue virus, Neutral Red (Cytopathic effect)
[6] = Neutral Red (Toxicity) of the antiviral screening; settings: African green monkey
[7] = tested on: Hedgehog signaling (Gli transcription factors); assay: Hedgehog pathway inhibition, cell-based reporter sensitive to Shh ligand; settings: read-out: EC50, hedgehog inhibition potency
[8] = tested on: Zika MR766; assay: In vitro antiviral screening, Visual (Virus yield reduction); settings: Vero 76; for SI90: Assay No. 3, Visual (Virus yield reduction)/Neutral Red (Toxicity); for EC90: Zika virus
[9] = tested on: Zika MR766; assay: In vitro antiviral screening, Neutral Red (Cytopathic effect); settings: Vero 76; for SI50: Assay No. 3, Neutral Red (Cytopathic effect/Toxicity); for EC50: Zika virus
[10] = tested on: CML CD34+ cells; assay: Colony-forming assay, Chronic Myeloid Leukemia; settings: for CML CD34+ colony formation: 0 μM = 100
[11] = tested on: Dengue virus 2 New Guinea C; assay: In vitro antiviral screening, Visual (Virus yield reduction); settings: Huh7; for SI90: Visual (Virus yield reduction)/Neutral Red (Toxicity); for EC90: Dengue virus, Visual (Virus yield reduction)
[12] = tested on: Hedgehog signaling (Gli transcription factors); assay: Hedgehog pathway inhibition, cell-based reporter derived from fibroblast SUFU knockouts; settings: read-out: EC50, hedgehog inhibition potency
[13] = tested on: c-Myc and n-Myc; assay: Western blot for c-Myc and n-Myc in Huh7.5 cells; format: cell-based; settings: 2 μM compound, Western blotting
Protocol: Referring to FIG. 8, the ability of Isis-11 (racemic) to inhibit c-Myc and n-Myc was evaluated. Huh7.5 cells were treated with 2 μM compound or no compound as a control. The cells were lysed and harvested at the indicated times. Western blotting was performed using antibodies as shown after serial stripping. […] YB-1 is known to be part of a positive feedback loop with Myc and is also affected by Myc inhibition.

[14] = Neutral Red (Toxicity) of the antiviral screening; settings: human
[15] = tested on: Rift Valley Fever Virus (RVFV); settings: reported value; cited from earlier work
[16] = tested on: MB002 cells; assay: MTT assay, cell proliferation; format: cell-based; settings: MB002, MTT, dose for Fa=0.5 inhibition (50%)
[17] = tested on: SUFU-KO-Light cells expressing Gli-luciferase; assay: Dose-effect curves, dual-Glo luciferase, Compusyn; format: cell-based; settings: SUFU-KO-Light, Gli-luciferase, Fa=0.5
[18] = Huh-7, Control drug, Assay No. 1
[19] = Huh-7, Control drug, Assay No. 2
[20] = inhibition of Gli-luciferase activity, read-out: IC50 (μM) SUFU-KO-Light

SMILES: CN(C)CCCn1c(N)nc2ccc3c(c21)CC(CN(C)C)O3 (racemic) [Isis-11]
- Gli-1 and c-Myc levels [1]: decrease both Gli-1 and c-Myc
- effect on cap-dependent and cap-independent translation [2]: inhibits both cap-dependent and cap-independent translation
- IC50 [3]: 500 nM
- IC50 ([4]; read-out: IC50 (μM) SUFU-KO-Light, inhibition of Gli-luciferase activity): 0.2 µM
- SI50 ([5]; Assay No. 1): 3.8
- SI50 ([5]; Assay No. 2): 4.9
- EC50 ([5]; Huh-7, Assay No. 1): 1800 nM
- EC50 ([5]; Huh-7, Assay No. 2): 490 nM
- CC50 [6]: 20000 nM
- EC50 [7]: ~100 nM
- SI90 [8]: 22
- EC90 [8]: 930 nM
- SI50 [9]: 23
- EC50 [9]: 880 nM
- colony formation ([10]; 0.8 μM): completely inhibited
- CML CD34+ colony formation ([10]; 14-290, 0.1 μM): 91.81
- CML CD34+ colony formation ([10]; 14-290, 0.2 μM): 19.40
- CML CD34+ colony formation ([10]; 14-290, 0.4 μM): 12.50
- CML CD34+ colony formation ([10]; 14-290, 0.8 μM): 0
- CML CD34+ colony formation ([10]; 14-290, 1.6 μM): 0
- CML CD34+ colony formation ([10]; 15-186, 0.1 μM): 87.06
- CML CD34+ colony formation ([10]; 15-186, 0.2 μM): 52.10
- CML CD34+ colony formation ([10]; 15-186, 0.4 μM): 38.81
- CML CD34+ colony formation ([10]; 15-186, 0.8 μM): 0
- CML CD34+ colony formation ([10]; 15-186, 1.6 μM): 0
- CML CD34+ colony formation ([10]; AVG, 0.1 μM): 89.44
- CML CD34+ colony formation ([10]; AVG, 0.2 μM): 35.75
- CML CD34+ colony formation ([10]; AVG, 0.4 μM): 25.66
- CML CD34+ colony formation ([10]; AVG, 0.8 μM): 0
- CML CD34+ colony formation ([10]; AVG, 1.6 μM): 0
- EC50 ([10]; read-out: EC50, CML CD34+ colony formation): ~150 nM
- EC50 ([10]; read-out: EC50, inhibition of colony formation): ~150 nM
- SI90 ([11]; Assay No. 1): 2.6
- SI90 ([11]; Assay No. 2): 6.3
- EC90 ([11]; Huh-7, Assay No. 1): 2700 nM
- EC90 ([11]; Huh-7, Assay No. 2): 380 nM
- EC50 [12]: ~100 nM
- c-Myc and n-Myc protein [13]: inhibited at the protein level
- CC50 ([14]; CC50, Assay No. 1, Neutral Red (Cytopathic effect/Toxicity) line): 6900 nM
- CC50 ([14]; CC50, Assay No. 1, Neutral Red (Toxicity), line of the virus yield reduction assay): 6900 nM
- CC50 ([14]; CC50, Assay No. 2, Neutral Red (Cytopathic effect/Toxicity) line): 2400 nM
- CC50 ([14]; CC50, Assay No. 2, Neutral Red (Toxicity), line of the virus yield reduction assay): 2400 nM

SMILES: Nc1ncnc2c([C@H]3N[C@@H](CO)[C@H](O)[C@@H]3O)c[nH]c12 [BCX4430]
- EC50 [15]: 41600 nM

SMILES: N.N.[Cl][Pt][Cl] [Cisplatin, reference compound]
- IC50 ([16]; read-out: Dose Cis): 780 nM

SMILES: O=c1cnn([C@@H]2O[C@H](CO)[C@@H](O)[C@H]2O)c(=O)[nH]1 [Compound 6-azauridine, 6-azauridine, reference compound]
- SI50 ([5]; Assay No. 1): >19
- SI50 ([5]; Assay No. 2): 15
- EC50 [5, 18]: 5.3 µg/mL
- EC50 [5, 19]: 1.8 µg/mL
- CC50 ([6]; Vero 76 cells): 26.5 µg/mL
- SI90 [8]: 0
- EC90 [8]: > 26.5 µg/mL
- SI50 [9]: 40
- EC50 [9]: 0.66 µg/mL
- SI90 ([11]; Assay No. 1): >10
- SI90 ([11]; Assay No. 2): 15
- EC90 [11, 18]: 10 µg/mL
- EC90 [11, 19]: 1.8 µg/mL
- CC50 ([14]; Huh7 cells, CC50, Control drug, Assay No. 1, Neutral Red (Cytopathic effect/Toxicity) line): > 100 µg/mL
- CC50 ([14]; Huh7 cells, CC50, Control drug, Assay No. 1, Neutral Red (Toxicity), line of the virus yield reduction assay): > 100 µg/mL
- CC50 ([14]; Huh7 cells, CC50, Control drug, Assay No. 2, Neutral Red (Cytopathic effect/Toxicity) line): 27 µg/mL
- CC50 ([14]; Huh7 cells, CC50, Control drug, Assay No. 2, Neutral Red (Toxicity), line of the virus yield reduction assay): 27 µg/mL

SMILES: CN(C)CC1COc2ccc3nc4n(c3c2C1)CC(CN(C)C)CN4 (stereo not drawn) [IBIS-560146]
- IC50 [4, 20]: > 2 µM

SMILES: CC(C)n1nc(-c2ccc3oc(N)nc3c2)c2c(N)ncnc21 [Ink-128, reference compound]
- IC50 ([16]; read-out: Dose Ink): 60 nM
- EC50 ([17]; read-out: EC50 as single agent): 6 nM
- EC50 ([17]; unit from FIG. 15 legend, read-out: Dose Ink): 6.13 nM

SMILES: CN(C)CCCn1c(N)nc2ccc(OCCN(C)C)cc21 [Isis-4]
- IC50 [4, 20]: 10 µM

SMILES: CN(C)CCCn1c(N)nc2ccc3c(c21)CC(CN(C)C)CO3 (stereo not drawn) [Isis-12]
- IC50 [4, 20]: 1.5 µM

SMILES: CN(C)CC1CNc2nc3ccc4c(c3n2C1)CC(CN(C)C)O4 (stereo not drawn) [Isis-075]
- IC50 [4, 20]: 0.36 µM

SMILES: Cc1sc2c(c1C)C(c1ccc(Cl)cc1)=N[C@@H](CC(=O)OC(C)(C)C)c1nnc(C)n1-2 [JQ1, reference compound]
- Gli-1 and c-Myc levels [1]: decrease both Gli-1 and c-Myc
